# Where “and” joins values, the source holds several entries; their conditions need not be identical. Identical values can stand only once.
# Target: lysine gingipain (Kgp) (Porphyromonas gingivalis (strain ATCC 33277 / DSM 20709 / CIP 103683 / JCM 12257 / NCTC 11834 / 2561), UniProt B2RLK2)
# Assay: Inhibition of lysine gingipain, fluorogenic assay (Z-His-Glu-Lys-MCA)
# Assay type: biochemical
# Conditions: not given
# Experimental: The specific assay conditions were as follows. Buffer: pH=7.5, 100 mM Tris-HCl, 75 mM NaCl, 2.5 mM CaCl2, 10 mM cysteine, 1% DMSO after all additions. Protein: 0.1 nM Kgp, isolated from culture of Porphyromonas gingivalis, as described by Pike et al. (J. Biol. Chem. 1994, 269(1), 406), and Potempa and Nguyen (Current Protocols in Protein Science. 2007, 21.20.1-21.20.27). Fluorogenic substrate: 10 μM Z-His-Glu-Lys-MCA. Time=90 minutes. Temperature=37° C.
# Further assays to measure the inhibitory activity of compounds of the present invention against Kgp and cathepsins B, H, K, L, and S were conducted as described in Example 66. The capacities of the compounds to inhibit the activity of cathepsins F, V, and Z were also measured.
row,Structure (SMILES),Kgp IC50 values (in words)
1,"NCCCC[C@H](NC(=O)C1CCCC1)C(=O)COc1c(F)c(F)cc(F)c1F (stereo in doubt) [Compound 73, N-[7-amino-2-oxo-1-(2,3,5,6-tetrafluorophenoxy)heptan-3-yl]cyclopentanecarboxamide, reference compound]",sub-nanomolar

# Same assay, conditions: Table 3; read-out: IC50 (nM) Kgp
row,Structure (SMILES),IC50
1,"NCCCC[C@H](NC(=O)C1CCCC1)C(=O)COc1c(F)c(F)cc(F)c1F (stereo in doubt) [Compound 73, N-[7-amino-2-oxo-1-(2,3,5,6-tetrafluorophenoxy)heptan-3-yl]cyclopentanecarboxamide, reference compound]",≤ 0.05 nM
2,NCCCCC(NC(=O)C1CCCC1)C(=O)COc1c(F)cccc1F (stereo not shown) [Compound 2a],≤ 0.05 nM and 0.11 nM
3,NCCCCC(NC(=O)C1CCCC1)C(=O)COc1ccccc1F (stereo not shown) [Compound 3a],0.64 nM
4,NCCCCC(NC(=O)C1CCCC1)C(=O)COc1cc(F)cc(F)c1F (stereo not shown) [Compound 4a],0.07 nM
5,NCCCCC(NC(=O)C1CCCC1)C(=O)COc1cccc(F)c1F (stereo not shown) [Compound 5a],0.15 nM
6,NCCCCC(NC(=O)C1CCCC1)C(=O)COc1cc(F)ccc1F (stereo not shown) [Compound 6a],0.19 nM
7,NCCCCC(NC(=O)C1CCCC1)C(=O)COc1cccc(F)c1 (stereo not shown) [Compound 7a],1.3 nM
8,NCCCCC(NC(=O)C1CCCC1)C(=O)COc1cc(F)cc(F)c1 (stereo not shown) [Compound 8a],0.34 nM
9,[N-]=[N+]=Nc1cccc(C(=O)NC(CCCCN)C(=O)COc2c(F)cccc2F)c1 (stereo not shown) [Compound 12a],0.08 nM
10,CSCC(=O)C(CCCCN)NC(=O)C1CCCC1 (stereo not shown) [Compound 16a],> 100 nM
11,NCCCCC(NC(=O)C1CCCC1)C(=O)COCC(F)(F)F (stereo not shown) [Compound 17a],> 100 nM
12,NCCCCC(NC(=O)C1CCCC1)C(=O)COC(C(F)(F)F)C(F)(F)F (stereo not shown) [Compound 18a],0.5 nM
13,CN(C)CC(=O)C(CCCCN)NC(=O)C1CCCC1 (stereo not shown) [Compound 19a],> 100 nM
14,CS(=O)(=O)CC(=O)C(CCCCN)NC(=O)C1CCCC1 (stereo not shown) [Compound 20a],> 100 nM
15,"NCCCC[C@@H](NC(=O)C1CCCC1)C(=O)COc1c(F)c(F)cc(F)c1F [Compound 74, reference compound]",≤ 0.05 nM

# Same assay, conditions: Table 4; read-out: IC50 (nM) Kgp
row,Structure (SMILES),IC50 [nM]
1,"NCCCC[C@H](NC(=O)C1CCCC1)C(=O)COc1c(F)c(F)cc(F)c1F (stereo in doubt) [Compound 73, N-[7-amino-2-oxo-1-(2,3,5,6-tetrafluorophenoxy)heptan-3-yl]cyclopentanecarboxamide, reference compound]",< 0.05
2,NCCCCC(NC(=O)C1CCCC1)C(=O)COc1c(F)cccc1F (stereo not shown) [Compound 2a],< 0.05
3,NCCCCC(NC(=O)C1CCCC1)C(=O)COc1cccc(F)c1 (stereo not shown) [Compound 7a],1.3
4,NCCCCC(NC(=O)C1CCCC1)C(=O)COC(C(F)(F)F)C(F)(F)F (stereo not shown) [Compound 18a],0.5
5,NCCCCC(NC(=O)c1cccc(F)c1)C(=O)COc1c(F)cccc1F (stereo not shown) [Compound 26a],0.09
6,NCCCCC(NC(=O)c1cccc(OCCF)c1)C(=O)COc1c(F)cccc1F (stereo not shown) [Compound 27a],0.27
7,NCCCCC(NC(=O)c1cccc(F)n1)C(=O)COc1c(F)cccc1F (stereo not shown) [Compound 28a],0.34
8,NCCCCC(NC(=O)c1ccc(F)nc1)C(=O)COc1c(F)cccc1F (stereo not shown) [Compound 29a],0.31
9,NCCCCC(NC(=O)c1cccc(OCCCF)c1)C(=O)COc1c(F)cccc1F (stereo not shown) [Compound 30a],0.21
10,NCCCCC(NC(=O)c1ccnc(F)c1)C(=O)COc1c(F)cccc1F (stereo not shown) [Compound 31a],0.15
11,NCCCCC(NC(=O)c1cccnc1F)C(=O)COc1c(F)cccc1F (stereo not shown) [Compound 32a],0.08
12,[N-]=[N+]=Nc1cccc(C(=O)NC(CCCCN)C(=O)COc2c(F)cccc2F)c1 (stereo not shown) [Compound 33a],0.08
13,NCCCCC(NC(=O)c1cccnc1Br)C(=O)COc1c(F)cccc1F (stereo not shown) [Compound 34a],0.13
14,NCCCCC(NC(=O)c1ccc(F)cc1)C(=O)COc1c(F)cccc1F (stereo not shown) [Compound 35a],0.1
15,NCCCCC(NC(=O)c1ccccc1)C(=O)C(F)F (stereo not shown) [Compound 37a],> 100
16,NCCCCC(NC(=O)C1CCCC1)C(=O)Cn1cnccc1=O (stereo not shown) [Compound 39a],> 100
17,NCCCCC(NC(=O)C1CCCC1)C(=O)Cn1ccc(=O)nc1 (stereo not shown) [Compound 40a],30.3
18,NCCCCC(NC(=O)C1CCCC1)C(=O)Cn1cncc(F)c1=O (stereo not shown) [Compound 41a],> 100

row,Structure (SMILES),IC50 [nM]
1,NCCCCC(NC(=O)c1cccnc1)C(=O)COc1c(F)ccc(F)c1F (stereo not shown) [Compound 42a],0.06
2,NCCCCC(NC(=O)c1cccnc1)C(=O)COc1c(F)cccc1F (stereo not shown) [Compound 43a],0.09
3,CN(C)c1ccc(/N=N/c2ccc(C(=O)NCc3cc(F)c(OCC(=O)C(CCCCN)NC(=O)c4cccc(N=[N+]=[N-])c4)c(F)c3)cc2)cc1 (stereo not shown) [Compound 44a],3.04
4,COC(C)(C)C(=O)NC(CCCCN)C(=O)COc1c(F)ccc(F)c1F (stereo not shown) [Compound 47a],0.06
5,COC(C)(C)C(=O)NC(CCCCN)C(=O)COc1c(F)cccc1F (stereo not shown) [Compound 48a],0.07
6,NCCCCC(NC(=O)C1CCCC1)C(=O)COc1ccon1 (stereo not shown) [Compound 49a],0.23
7,NCCCCC(NC(=O)c1ccccn1)C(=O)COc1c(F)ccc(F)c1F (stereo not shown) [Compound 50a],0.09
8,NCCCCC(NC(=O)c1ccncc1)C(=O)COc1c(F)ccc(F)c1F (stereo not shown) [Compound 52a],0.06
9,NCCCCC(NC(=O)c1ccc(F)nc1)C(=O)COc1ccon1 (stereo not shown) [Compound 55a],0.12
10,NCCCCC(NC(=O)c1cccnc1F)C(=O)COc1ccon1 (stereo not shown) [Compound 56a],0.1
11,COC(C)(C)C(=O)NC(CCCCN)C(=O)COc1ccon1 (stereo not shown) [Compound 57a],0.09
12,CS(C)(=O)=CC(=O)C(CCCCN)NC(=O)C1CCCC1 (stereo not shown) [Compound 58a],4.66
13,C[N+](C)(C)c1ccc(C(=O)NC(CCCCN)C(=O)COc2ccon2)cn1 (stereo not shown) [Compound 61a],0.43
14,CN(C)c1ccc(C(=O)NC(CCCCN)C(=O)COc2ccon2)cn1 (stereo not shown) [Compound 62a],0.14
15,COC(C)(C)C(=O)NC(CCCCN)C(=O)COc1cc(C)nc(C)c1 (stereo not shown) [Compound 63a],0.09
16,COC(C)(C)C(=O)NC(CCCCN)C(=O)COc1cccnc1 (stereo not shown) [Compound 64a],0.4
17,COC(C)(C)C(=O)NC(CCCCN)C(=O)COc1cnc(C)nc1 (stereo not shown) [Compound 65a],0.16
18,COC(C)(C)C(=O)NC(CCCCN)C(=O)COC(C(F)(F)F)C(F)(F)F (stereo not shown) [Compound 69a],0.21

# Same assay, conditions: Table 5, probe compounds; read-out: Kgp IC50
row,Structure (SMILES),IC50 [nM]
1,"NCCCC[C@H](NC(=O)C1CCCC1)C(=O)COc1c(F)c(F)cc(F)c1F (stereo in doubt) [Compound 73, N-[7-amino-2-oxo-1-(2,3,5,6-tetrafluorophenoxy)heptan-3-yl]cyclopentanecarboxamide, reference compound]",< 0.05
2,CN(C)c1ccc(/N=N/c2ccc(C(=O)NCc3cc(F)c(OCC(=O)C(CCCCN)NC(=O)c4cccc(N=[N+]=[N-])c4)c(F)c3)cc2)cc1 (stereo not shown) [Compound 44a],3

# Same assay, conditions: as compared to reference compound 73
row,Structure (SMILES),selectivity for Kgp over endogenous cathepsins
1,"NCCCC[C@H](NC(=O)C1CCCC1)C(=O)COc1c(F)cccc1F [Compound 2, (S)—N-(7-amino-1-(2,6-difluorophenoxy)-2-oxoheptan-3-yl)cyclopentanecarboxamide]",increased selectivity
2,"NCCCC[C@H](NC(=O)C1CCCC1)C(=O)COc1cccc(F)c1 [Compound 7, (S)—N-(7-amino-1-(3-fluorophenoxy)-2-oxoheptan-3-yl)cyclopentanecarboxamide]",increased selectivity
3,"NCCCC[C@H](NC(=O)C1CCCC1)C(=O)COC(C(F)(F)F)C(F)(F)F [Compound 18, (S)—N-(7-amino-1-((1,1,1,3,3,3-hexafluoropropan-2-yl)oxy)-2-oxoheptan-3-yl)cyclopentanecarboxamide]",far more selective
4,"NCCCC[C@H](NC(=O)c1ccccn1)C(=O)COc1c(F)ccc(F)c1F [Compound 50, (S)—N-(7-amino-2-oxo-1-(2,3,6-trifluorophenoxy)heptan-3-yl)picolinamide]",increased selectivity
5,"NCCCC[C@H](NC(=O)c1ccc(F)nc1)C(=O)COc1ccon1 [Compound 55, (S)—N-(7-amino-1-(isoxazol-3-yloxy)-2-oxoheptan-3-yl)-6-fluoronicotinamide]",far more selective

# Test system: not listed separately
# Assay: Oral pharmacokinetics in CD-1 mice
# Assay type: in vivo
# Conditions: male CD-1 mice, p.o. 10 mg/kg, as compared to reference compound 73
oral availability,plasma concentrations,Structure (SMILES)
improved,increased,"COC(C)(C)C(=O)N[C@@H](CCCCN)C(=O)COc1c(F)cccc1F [Compound 48, (S)—N-(7-amino-1-(2,6-difluorophenoxy)-2-oxoheptan-3-yl)-2-methoxy-2-methylpropanamide]"

# From patent US11325884B2, “Ketone inhibitors of lysine gingipain” (CORTEXYME, INC., priority 2016, dated 2022)
